In ChEMBL document CHEMBL2401706, “An atom economic synthesis and AChE inhibitory activity of novel dispiro 7-aryltetrahydro-1H-pyrrolo[1,2-c][1,3]thiazole and 4-aryloctahydroindolizine N-methylpiperidin-4-one hybrid heterocycles” (Eur J Med Chem, 2013):

biological target: Acetylcholinesterase (Electrophorus electricus, UniProt O42275); experiment: Inhibition of electric eel AChE after 30 mins by Ellman's method
Sequence (O42275 whole entry): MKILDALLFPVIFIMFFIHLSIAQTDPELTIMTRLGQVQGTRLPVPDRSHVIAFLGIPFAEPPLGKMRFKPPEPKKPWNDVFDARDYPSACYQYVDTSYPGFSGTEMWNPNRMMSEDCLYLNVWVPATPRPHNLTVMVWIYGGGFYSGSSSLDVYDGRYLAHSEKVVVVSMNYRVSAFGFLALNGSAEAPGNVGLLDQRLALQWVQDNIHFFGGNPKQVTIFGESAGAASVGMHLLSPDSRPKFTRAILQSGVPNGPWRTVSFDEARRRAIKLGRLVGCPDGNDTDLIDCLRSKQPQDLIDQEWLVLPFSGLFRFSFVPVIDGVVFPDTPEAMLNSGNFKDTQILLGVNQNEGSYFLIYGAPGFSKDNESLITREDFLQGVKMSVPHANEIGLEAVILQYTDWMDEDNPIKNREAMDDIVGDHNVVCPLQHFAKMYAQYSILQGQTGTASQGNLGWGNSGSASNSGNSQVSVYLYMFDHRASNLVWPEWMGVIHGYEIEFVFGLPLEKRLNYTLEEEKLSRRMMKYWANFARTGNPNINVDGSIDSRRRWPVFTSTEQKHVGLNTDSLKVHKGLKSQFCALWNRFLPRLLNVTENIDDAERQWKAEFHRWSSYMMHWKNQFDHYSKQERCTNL

Row | SMILES | IC50 [µM]
1 | CN1C/C(=C\c2ccccc2F)C(=O)[C@]2(C1)[C@@H](c1ccccc1F)[C@@H]1CCCCN1[C@@]21C(=O)c2cccc3cccc1c23 | 34.2
2 | COc1ccccc1/C=C1\CN(C)C[C@@]2(C1=O)[C@@H](c1ccccc1OC)[C@@H]1CCCCN1[C@@]21C(=O)c2cccc3cccc1c23 | 11.6
3 | CN1C/C(=C\c2ccccc2Br)C(=O)[C@]2(C1)[C@@H](c1ccccc1Br)[C@@H]1CCCCN1[C@@]21C(=O)c2cccc3cccc1c23 | 38.3
4 | CN1C/C(=C\c2cccc(F)c2)C(=O)[C@]2(C1)[C@@H](c1cccc(F)c1)[C@@H]1CCCCN1[C@@]21C(=O)c2cccc3cccc1c23 | 32.6
5 | CN1C/C(=C\c2cccc([N+](=O)[O-])c2)C(=O)[C@]2(C1)[C@@H](c1cccc([N+](=O)[O-])c1)[C@@H]1CCCCN1[C@@]21C(=O)c2cccc3cccc1c23 | 25.1
6 | CN1C/C(=C\c2cccc(Cl)c2Cl)C(=O)[C@]2(C1)[C@@H](c1cccc(Cl)c1Cl)[C@@H]1CCCCN1[C@@]21C(=O)c2cccc3cccc1c23 | 24.2
7 | CN1C/C(=C\c2ccc(Cl)cc2Cl)C(=O)[C@]2(C1)[C@@H](c1ccc(Cl)cc1Cl)[C@@H]1CCCCN1[C@@]21C(=O)c2cccc3cccc1c23 | 17.3
8 | CN1C/C(=C\c2cccc3ccccc23)C(=O)[C@]2(C1)[C@@H](c1cccc3ccccc13)[C@@H]1CCCCN1[C@@]21C(=O)c2cccc3cccc1c23 | 3.34
9 | CN1C/C(=C\c2cccc3ccccc23)C(=O)[C@]2(C1)[C@@H](c1cccc3ccccc13)[C@@H]1CSCN1[C@@]21C(=O)c2cccc3cccc1c23 | 9.48
10 | CN1C/C(=C\c2ccccc2)C(=O)[C@]2(C1)[C@@H](c1ccccc1)[C@@H]1CCCCN1[C@@]21C(=O)c2cccc3cccc1c23 | 18.3
11 | CN1C/C(=C\c2ccc(Cl)cc2)C(=O)[C@]2(C1)[C@@H](c1ccc(Cl)cc1)[C@@H]1CCCCN1[C@@]21C(=O)c2cccc3cccc1c23 | 11.6
12 | Cc1ccc(/C=C2\CN(C)C[C@@]3(C2=O)[C@@H](c2ccc(C)cc2)[C@@H]2CCCCN2[C@@]32C(=O)c3cccc4cccc2c34)cc1 | 2.24
13 | COc1ccc(/C=C2\CN(C)C[C@@]3(C2=O)[C@@H](c2ccc(OC)cc2)[C@@H]2CCCCN2[C@@]32C(=O)c3cccc4cccc2c34)cc1 | 22.3
14 | CN1C/C(=C\c2ccc(F)cc2)C(=O)[C@]2(C1)[C@@H](c1ccc(F)cc1)[C@@H]1CCCCN1[C@@]21C(=O)c2cccc3cccc1c23 | 12.6
15 | CN1C/C(=C\c2ccc(Br)cc2)C(=O)[C@]2(C1)[C@@H](c1ccc(Br)cc1)[C@@H]1CCCCN1[C@@]21C(=O)c2cccc3cccc1c23 | 14.1
16 | CN1C/C(=C\c2ccc([N+](=O)[O-])cc2)C(=O)[C@]2(C1)[C@@H](c1ccc([N+](=O)[O-])cc1)[C@@H]1CCCCN1[C@@]21C(=O)c2cccc3cccc1c23 | 9.16
17 | CN1C/C(=C\c2ccccc2Cl)C(=O)[C@]2(C1)[C@@H](c1ccccc1Cl)[C@@H]1CCCCN1[C@@]21C(=O)c2cccc3cccc1c23 | 21.3

Row | SMILES | IC50 [µM]
18 | Cc1ccccc1/C=C1\CN(C)C[C@@]2(C1=O)[C@@H](c1ccccc1C)[C@@H]1CCCCN1[C@@]21C(=O)c2cccc3cccc1c23 | 3.86
19 | CN1C/C(=C\c2ccc(F)cc2)C(=O)[C@]2(C1)[C@@H](c1ccc(F)cc1)[C@@H]1CSCN1[C@@]21C(=O)c2cccc3cccc1c23 | 15.8
20 | CN1C/C(=C\c2ccc(Br)cc2)C(=O)[C@]2(C1)[C@@H](c1ccc(Br)cc1)[C@@H]1CSCN1[C@@]21C(=O)c2cccc3cccc1c23 | 20.3
21 | CN1C/C(=C\c2ccc([N+](=O)[O-])cc2)C(=O)[C@]2(C1)[C@@H](c1ccc([N+](=O)[O-])cc1)[C@@H]1CSCN1[C@@]21C(=O)c2cccc3cccc1c23 | 4.56
22 | CN1C/C(=C\c2ccccc2Cl)C(=O)[C@]2(C1)[C@@H](c1ccccc1Cl)[C@@H]1CSCN1[C@@]21C(=O)c2cccc3cccc1c23 | 12.2
23 | Cc1ccccc1/C=C1\CN(C)C[C@@]2(C1=O)[C@@H](c1ccccc1C)[C@@H]1CSCN1[C@@]21C(=O)c2cccc3cccc1c23 | 6.28
24 | CN1C/C(=C\c2ccccc2F)C(=O)[C@]2(C1)[C@@H](c1ccccc1F)[C@@H]1CSCN1[C@@]21C(=O)c2cccc3cccc1c23 | 12.6
25 | CN1C/C(=C\c2ccccc2Br)C(=O)[C@]2(C1)[C@@H](c1ccccc1Br)[C@@H]1CSCN1[C@@]21C(=O)c2cccc3cccc1c23 | 10.1
26 | CN1C/C(=C\c2cccc(F)c2)C(=O)[C@]2(C1)[C@@H](c1cccc(F)c1)[C@@H]1CSCN1[C@@]21C(=O)c2cccc3cccc1c23 | 11.2
27 | CN1C/C(=C\c2cccc([N+](=O)[O-])c2)C(=O)[C@]2(C1)[C@@H](c1cccc([N+](=O)[O-])c1)[C@@H]1CSCN1[C@@]21C(=O)c2cccc3cccc1c23 | 8.1
28 | CN1C/C(=C\c2cccc(Cl)c2Cl)C(=O)[C@]2(C1)[C@@H](c1cccc(Cl)c1Cl)[C@@H]1CSCN1[C@@]21C(=O)c2cccc3cccc1c23 | 19.1
29 | CN1C/C(=C\c2ccc(Cl)cc2Cl)C(=O)[C@]2(C1)[C@@H](c1ccc(Cl)cc1Cl)[C@@H]1CSCN1[C@@]21C(=O)c2cccc3cccc1c23 | 23.2
30 | CN1C/C(=C\c2ccccc2)C(=O)[C@]2(C1)[C@@H](c1ccccc1)[C@@H]1CSCN1[C@@]21C(=O)c2cccc3cccc1c23 | 16.5
31 | CN1C/C(=C\c2ccc(Cl)cc2)C(=O)[C@]2(C1)[C@@H](c1ccc(Cl)cc1)[C@@H]1CSCN1[C@@]21C(=O)c2cccc3cccc1c23 | 11.1
32 | Cc1ccc(/C=C2\CN(C)C[C@@]3(C2=O)[C@@H](c2ccc(C)cc2)[C@@H]2CSCN2[C@@]32C(=O)c3cccc4cccc2c34)cc1 | 1.86
33 | COc1ccc(/C=C2\CN(C)C[C@@]3(C2=O)[C@@H](c2ccc(OC)cc2)[C@@H]2CSCN2[C@@]32C(=O)c3cccc4cccc2c34)cc1 | 12.3
